Data: patent US8853389B2, “Process for refining cefmetazole sodium” (Hainan Lingkang Pharmaceutical Co., Ltd., priority 2011, dated 2014)

Experiments:
[1] = system: group A hemolytic streptococcus; conditions: cited from earlier work
[2] = appearance of aqueous solution of refined material; assay type: physicochemical; conditions: solution of about 0.1 g/mL in water
Klebsiella pneumoniae = conditions: cited from earlier work
Bacteroides fragilis = conditions: cited from earlier work
Pseudomonas = conditions: cited from earlier work
Shigella = conditions: cited from earlier work
meningococcus = conditions: cited from earlier work
pneumococcus = conditions: cited from earlier work
Proteus mirabilis = conditions: cited from earlier work
[3] = system: methicillin-resistant Staphylococcus aureus; conditions: cited from earlier work
Escherichia coli = conditions: cited from earlier work
Enterobacter = conditions: cited from earlier work
[4] = system: broad-spectrum β-lactamase generated by negative bacilli; conditions: cited from earlier work
[5] = system: catarrhal Brenham bacteria; conditions: cited from earlier work
Salmonella = conditions: cited from earlier work
solubility in solvents = assay type: physicochemical
Excerpt: Since the solubility of Cefmetazole sodium is high in water but very low in ethanol and even lower in acetone, a mixture of water and ethanol or a mixture of water and acetone is chosen as the solvent to recrystallize Cefmetazole sodium.

Staphylococcus aureus = conditions: cited from earlier work

CO[C@]1(NC(=O)CSCC#N)C(=O)N2C(C(=O)[O-])=C(CSc3nnnn3C)CS[C@H]21.[Na+] [Cefmetazole sodium]
sensitivity [1]: high sensitivity | appearance of solution [2]: clear and colorless | antibacterial activity (Klebsiella pneumoniae): relatively good activity | antibacterial activity (Bacteroides fragilis): good antibacterial activity | sensitivity (Pseudomonas): low sensitivity or resistance | antibacterial activity (Shigella): relatively good activity | sensitivity (meningococcus): low sensitivity or resistance | sensitivity (pneumococcus): low sensitivity or resistance | antibacterial activity (Proteus mirabilis): relatively good activity | sensitivity [3]: low sensitivity or resistance | antibacterial activity (Escherichia coli): relatively good activity | sensitivity (Enterobacter): low sensitivity or resistance | stability towards β-lactamase [4]: more stable | sensitivity [5]: high sensitivity | antibacterial activity (Salmonella): relatively good activity | solubility (solubility in solvents; in ethanol): very low | solubility (solubility in solvents; in water): high | sensitivity (Staphylococcus aureus): high sensitivity
